Test results as given in the NIST ThermoML archive (doi:10.1021/je900600c).

Test: xn = mol fraction of the nth substance listed
Conditions: 101 kPa, Liquid; for electrical conductivity: Frequency=0.0005 MHz, crison conductivimeter

CCCCn1cc[n+](C)c1.F[B-](F)(F)F [1-butyl-3-methylimidazolium tetrafluoroborate] + O
Conditions	electrical conductivity [S/m]	viscosity [mPa·s]
288.15 K, x2 = 0	–	173.5
288.15 K, x2 = 0.0476	–	134.1
288.15 K, x2 = 0.1091	–	108.4
288.15 K, x2 = 0.143	–	89.3
288.15 K, x2 = 0.2389	–	58.2
288.15 K, x2 = 0.3078	–	45.6
288.15 K, x2 = 0.4	–	32.5
288.15 K, x2 = 0.4954	1.4	–
288.15 K, x2 = 0.5054	–	21.1
288.15 K, x2 = 0.6266	–	13.77
288.15 K, x2 = 0.6992	–	9.78
288.15 K, x2 = 0.7981	–	6.69
288.15 K, x2 = 0.9032	–	3.83
298.15 K, x2 = 0	0.352	99.2
298.15 K, x2 = 0.0476	–	78.7
298.15 K, x2 = 0.1091	–	65.6
298.15 K, x2 = 0.143	–	55.1
298.15 K, x2 = 0.2235	0.785	–
298.15 K, x2 = 0.2389	–	37.7
298.15 K, x2 = 0.3078	–	30.2
298.15 K, x2 = 0.3705	1.3	–
298.15 K, x2 = 0.4	–	22.1
298.15 K, x2 = 0.4835	1.86	–
298.15 K, x2 = 0.4954	2.02	–
298.15 K, x2 = 0.5054	–	14.72
298.15 K, x2 = 0.6173	2.75	–
298.15 K, x2 = 0.6266	–	9.82
298.15 K, x2 = 0.6992	–	7.07
298.15 K, x2 = 0.7167	3.64	–
298.15 K, x2 = 0.777	4.2	–
298.15 K, x2 = 0.7981	–	4.89
298.15 K, x2 = 0.8168	4.55	–
298.15 K, x2 = 0.8458	4.84	–
298.15 K, x2 = 0.8684	5	–
298.15 K, x2 = 0.8879	5.08	–
298.15 K, x2 = 0.9031	5.09	–
298.15 K, x2 = 0.9032	–	2.79
298.15 K, x2 = 0.9151	5.08	–
298.15 K, x2 = 0.9245	5.05	–
298.15 K, x2 = 0.9322	4.98	–
298.15 K, x2 = 0.9396	4.84	–
298.15 K, x2 = 0.9457	4.81	–
298.15 K, x2 = 0.952	4.73	–
298.15 K, x2 = 0.9572	4.65	–
298.15 K, x2 = 0.9615	4.54	–
298.15 K, x2 = 0.9654	4.41	–
298.15 K, x2 = 0.9713	4.15	–
298.15 K, x2 = 0.9801	3.64	–
298.15 K, x2 = 0.9861	3.14	–
298.15 K, x2 = 0.9896	2.68	–
298.15 K, x2 = 0.993	2.11	–
298.15 K, x2 = 0.9951	1.64	–
298.15 K, x2 = 0.9961	1.43	–
298.15 K, x2 = 0.9974	1.05	–
298.15 K, x2 = 0.9982	0.788	–
298.15 K, x2 = 0.999	0.475	–
298.15 K, x2 = 0.9996	0.2	–
308.15 K, x2 = 0	–	61.3
308.15 K, x2 = 0.0476	–	49.8
308.15 K, x2 = 0.1091	–	42.4
308.15 K, x2 = 0.143	–	36.3
308.15 K, x2 = 0.2389	–	25.9
308.15 K, x2 = 0.3078	–	21.1
308.15 K, x2 = 0.4	–	15.81
308.15 K, x2 = 0.4954	2.61	–
308.15 K, x2 = 0.5054	–	10.8
308.15 K, x2 = 0.6266	–	7.33
308.15 K, x2 = 0.6992	–	5.34
308.15 K, x2 = 0.7981	–	3.75
308.15 K, x2 = 0.9032	–	2.47
318.15 K, x2 = 0	–	40.4
318.15 K, x2 = 0.0476	–	33.5
318.15 K, x2 = 0.1091	–	29.1
318.15 K, x2 = 0.143	–	25.3
318.15 K, x2 = 0.2389	–	18.62
318.15 K, x2 = 0.3078	–	15.47
318.15 K, x2 = 0.4	–	11.81
318.15 K, x2 = 0.4954	3.25	–
318.15 K, x2 = 0.5054	–	8.24
318.15 K, x2 = 0.6266	–	5.68
318.15 K, x2 = 0.6992	–	4.18
318.15 K, x2 = 0.7981	–	2.96
318.15 K, x2 = 0.9032	–	1.717
